Assay results published in ChEMBL document CHEMBL5465560, “Selectivity Literature for EUbOPEN Chemogenomic Library” (2024).
Blank lines part the entries; values can stand above or below the molecule they belong to.

Experiments:
[1] = biological target: 4-aminobutyrate aminotransferase, mitochondrial (Homo sapiens, UniProt P80404); assay: Selectivity interaction (GPCR panel (PDSP screen)) EUB0000311b ABAT; conditions: at 10 µM
[2] = biological target: Calcium/calmodulin-dependent protein kinase type II subunit beta (Homo sapiens) (UniProt Q13554); assay: Selectivity interaction (ActivX KiNativ screen (kinase selectivity in THP-1 cell lysates)) EUB0000639a CAMK2B; assay type: subcellular; conditions: lysate, at 0.2 µM
Chain of Calcium/calmodulin-dependent protein kinase type II subunit beta (Homo sapiens) (Q13554 whole entry): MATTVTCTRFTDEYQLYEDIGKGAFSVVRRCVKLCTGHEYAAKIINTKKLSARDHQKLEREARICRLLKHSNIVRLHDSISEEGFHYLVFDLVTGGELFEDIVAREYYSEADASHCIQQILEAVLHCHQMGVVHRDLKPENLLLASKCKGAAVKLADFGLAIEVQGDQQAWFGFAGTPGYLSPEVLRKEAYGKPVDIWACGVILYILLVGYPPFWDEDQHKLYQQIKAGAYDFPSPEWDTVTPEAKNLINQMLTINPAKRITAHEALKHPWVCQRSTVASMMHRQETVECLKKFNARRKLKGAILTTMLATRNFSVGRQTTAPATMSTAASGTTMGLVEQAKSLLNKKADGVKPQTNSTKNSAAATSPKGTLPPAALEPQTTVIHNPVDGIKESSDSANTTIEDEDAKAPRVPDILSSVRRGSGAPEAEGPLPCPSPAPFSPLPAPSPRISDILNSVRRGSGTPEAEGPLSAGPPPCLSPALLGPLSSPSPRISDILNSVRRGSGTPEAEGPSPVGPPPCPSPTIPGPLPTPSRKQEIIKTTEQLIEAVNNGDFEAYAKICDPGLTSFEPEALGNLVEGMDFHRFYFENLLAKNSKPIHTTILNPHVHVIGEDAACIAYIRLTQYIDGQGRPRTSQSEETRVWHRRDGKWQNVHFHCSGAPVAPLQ

[3] = biological target: Cyclin-dependent kinase 16 (Homo sapiens) (UniProt Q00536); assay: Selectivity interaction (ActivX KiNativ screen (kinase selectivity in THP-1 cell lysates)) EUB0000639a CDK16; assay type: subcellular; conditions: lysate, at 5 µM
Chain of Cyclin-dependent kinase 16 (Homo sapiens) (Q00536 whole entry): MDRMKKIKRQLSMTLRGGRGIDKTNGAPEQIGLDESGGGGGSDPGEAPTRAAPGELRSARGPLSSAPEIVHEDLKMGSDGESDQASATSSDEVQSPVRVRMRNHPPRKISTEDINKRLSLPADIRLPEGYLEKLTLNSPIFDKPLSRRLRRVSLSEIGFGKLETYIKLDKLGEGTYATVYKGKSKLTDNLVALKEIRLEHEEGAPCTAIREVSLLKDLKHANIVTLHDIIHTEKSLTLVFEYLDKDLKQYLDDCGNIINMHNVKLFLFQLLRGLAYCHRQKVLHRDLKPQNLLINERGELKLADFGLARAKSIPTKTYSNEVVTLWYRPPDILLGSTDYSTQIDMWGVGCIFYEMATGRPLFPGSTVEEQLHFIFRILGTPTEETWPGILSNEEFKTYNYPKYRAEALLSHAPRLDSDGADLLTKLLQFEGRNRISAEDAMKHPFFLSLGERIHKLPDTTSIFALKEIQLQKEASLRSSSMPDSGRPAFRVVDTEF

[4] = biological target: T1, Serine/threonine-protein kinase PLK4 (Homo sapiens) (UniProt O00444); assay: Selectivity interaction (KinomeScan (DiscoverX)) EUB0000595a PLK4; conditions: at 10 µM
T1 sequence (whole entry): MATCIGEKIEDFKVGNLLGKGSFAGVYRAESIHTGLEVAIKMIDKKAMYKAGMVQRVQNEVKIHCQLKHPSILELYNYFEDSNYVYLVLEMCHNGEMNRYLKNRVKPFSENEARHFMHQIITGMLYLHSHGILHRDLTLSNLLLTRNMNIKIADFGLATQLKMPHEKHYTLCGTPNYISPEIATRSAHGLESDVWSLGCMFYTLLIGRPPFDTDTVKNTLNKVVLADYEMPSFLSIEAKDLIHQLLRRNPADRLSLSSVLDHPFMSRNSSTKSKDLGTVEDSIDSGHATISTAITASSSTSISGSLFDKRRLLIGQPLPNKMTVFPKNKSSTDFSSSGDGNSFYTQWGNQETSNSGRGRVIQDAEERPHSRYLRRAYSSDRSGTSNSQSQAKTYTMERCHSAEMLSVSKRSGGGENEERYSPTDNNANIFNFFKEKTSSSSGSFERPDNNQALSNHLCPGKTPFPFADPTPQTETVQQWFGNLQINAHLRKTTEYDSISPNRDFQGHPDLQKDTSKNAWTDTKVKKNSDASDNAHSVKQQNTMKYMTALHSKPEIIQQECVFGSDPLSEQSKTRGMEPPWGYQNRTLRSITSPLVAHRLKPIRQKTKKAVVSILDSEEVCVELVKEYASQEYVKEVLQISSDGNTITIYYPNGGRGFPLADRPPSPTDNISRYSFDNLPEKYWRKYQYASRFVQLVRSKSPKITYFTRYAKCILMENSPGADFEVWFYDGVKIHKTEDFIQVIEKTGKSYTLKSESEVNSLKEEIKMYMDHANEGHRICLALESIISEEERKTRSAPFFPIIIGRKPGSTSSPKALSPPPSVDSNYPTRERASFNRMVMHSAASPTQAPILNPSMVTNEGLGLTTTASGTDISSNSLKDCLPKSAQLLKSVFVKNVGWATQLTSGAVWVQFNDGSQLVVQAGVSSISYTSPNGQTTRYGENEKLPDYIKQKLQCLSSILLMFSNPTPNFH

[5] = biological target: T2, Serine/threonine-protein kinase TAO2 (Homo sapiens) (UniProt Q9UL54); assay: Selectivity interaction (KinomeScan (DiscoverX)) EUB0001049a TAOK2; conditions: at 1 µM
T2 sequence (whole entry): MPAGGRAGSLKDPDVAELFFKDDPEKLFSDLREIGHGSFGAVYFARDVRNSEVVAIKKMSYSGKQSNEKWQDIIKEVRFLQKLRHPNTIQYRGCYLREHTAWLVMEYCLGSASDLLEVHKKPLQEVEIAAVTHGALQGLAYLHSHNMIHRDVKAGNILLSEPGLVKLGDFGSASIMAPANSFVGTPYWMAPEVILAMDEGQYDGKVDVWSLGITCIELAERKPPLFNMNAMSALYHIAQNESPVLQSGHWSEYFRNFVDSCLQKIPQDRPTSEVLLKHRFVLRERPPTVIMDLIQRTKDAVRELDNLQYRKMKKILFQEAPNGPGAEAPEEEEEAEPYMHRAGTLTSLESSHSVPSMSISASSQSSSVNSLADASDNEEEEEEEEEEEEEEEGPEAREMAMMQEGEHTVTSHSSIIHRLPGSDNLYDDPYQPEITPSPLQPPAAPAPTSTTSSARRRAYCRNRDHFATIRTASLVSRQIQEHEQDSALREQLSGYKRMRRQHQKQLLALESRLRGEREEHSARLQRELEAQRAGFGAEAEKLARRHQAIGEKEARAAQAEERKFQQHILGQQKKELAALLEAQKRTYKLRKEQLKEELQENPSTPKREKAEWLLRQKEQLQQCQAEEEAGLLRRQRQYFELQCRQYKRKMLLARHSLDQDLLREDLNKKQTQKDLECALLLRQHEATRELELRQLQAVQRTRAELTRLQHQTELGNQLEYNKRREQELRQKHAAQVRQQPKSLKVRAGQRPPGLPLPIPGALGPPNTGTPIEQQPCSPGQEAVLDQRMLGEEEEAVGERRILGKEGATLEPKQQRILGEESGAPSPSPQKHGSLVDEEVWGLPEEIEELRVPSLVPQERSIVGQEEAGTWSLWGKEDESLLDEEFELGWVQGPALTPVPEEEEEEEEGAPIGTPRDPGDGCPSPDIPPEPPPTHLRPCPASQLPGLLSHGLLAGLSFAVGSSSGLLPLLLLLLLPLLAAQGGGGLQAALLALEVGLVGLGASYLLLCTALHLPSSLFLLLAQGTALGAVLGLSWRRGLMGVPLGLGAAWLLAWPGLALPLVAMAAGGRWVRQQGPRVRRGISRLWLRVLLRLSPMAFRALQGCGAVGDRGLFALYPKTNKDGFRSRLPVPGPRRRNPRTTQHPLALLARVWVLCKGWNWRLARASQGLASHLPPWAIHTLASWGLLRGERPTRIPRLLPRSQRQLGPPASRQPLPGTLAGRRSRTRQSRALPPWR

[6] = biological target: Mitogen-activated protein kinase 14 (Homo sapiens, UniProt Q16539); assay: Selectivity interaction (Millipore kinase profiler) EUB0000124b MAPK14; conditions: at 10 µM
Chain of Mitogen-activated protein kinase 14 (Q16539 whole entry): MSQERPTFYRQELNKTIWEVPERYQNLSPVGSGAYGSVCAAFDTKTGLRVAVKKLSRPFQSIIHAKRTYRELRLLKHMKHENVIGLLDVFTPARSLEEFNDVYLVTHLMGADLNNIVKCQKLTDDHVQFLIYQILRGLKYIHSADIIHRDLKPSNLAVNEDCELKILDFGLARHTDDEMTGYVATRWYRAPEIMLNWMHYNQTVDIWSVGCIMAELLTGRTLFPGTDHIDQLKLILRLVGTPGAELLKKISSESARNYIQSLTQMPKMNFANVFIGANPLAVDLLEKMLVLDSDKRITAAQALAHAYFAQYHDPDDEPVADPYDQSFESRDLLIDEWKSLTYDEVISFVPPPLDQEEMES

[7] = biological target: MAP/microtubule affinity-regulating kinase 3 (Homo sapiens) (UniProt P27448); conditions: at 10 µM
Chain of MAP/microtubule affinity-regulating kinase 3 (Homo sapiens) (P27448 whole entry, looked up): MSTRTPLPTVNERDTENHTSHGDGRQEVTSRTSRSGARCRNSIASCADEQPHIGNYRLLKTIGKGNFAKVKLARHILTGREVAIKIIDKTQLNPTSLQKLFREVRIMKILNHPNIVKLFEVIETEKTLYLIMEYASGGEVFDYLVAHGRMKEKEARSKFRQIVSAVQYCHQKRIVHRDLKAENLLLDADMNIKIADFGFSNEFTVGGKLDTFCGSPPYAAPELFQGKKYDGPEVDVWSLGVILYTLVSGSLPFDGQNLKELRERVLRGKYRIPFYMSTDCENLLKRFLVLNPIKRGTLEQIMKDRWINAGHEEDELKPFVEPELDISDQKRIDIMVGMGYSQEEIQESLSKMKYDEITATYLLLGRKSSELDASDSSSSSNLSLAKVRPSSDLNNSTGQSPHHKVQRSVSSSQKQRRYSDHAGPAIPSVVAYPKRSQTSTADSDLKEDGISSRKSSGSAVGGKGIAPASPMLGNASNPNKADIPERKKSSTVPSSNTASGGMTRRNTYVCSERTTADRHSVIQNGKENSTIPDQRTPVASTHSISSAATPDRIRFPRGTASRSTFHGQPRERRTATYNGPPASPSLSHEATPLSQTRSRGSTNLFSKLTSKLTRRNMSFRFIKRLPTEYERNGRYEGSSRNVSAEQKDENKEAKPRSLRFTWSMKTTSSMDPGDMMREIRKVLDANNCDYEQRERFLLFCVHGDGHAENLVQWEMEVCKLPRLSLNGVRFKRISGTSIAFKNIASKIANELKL

Chain of 4-aminobutyrate aminotransferase, mitochondrial (P80404 whole entry): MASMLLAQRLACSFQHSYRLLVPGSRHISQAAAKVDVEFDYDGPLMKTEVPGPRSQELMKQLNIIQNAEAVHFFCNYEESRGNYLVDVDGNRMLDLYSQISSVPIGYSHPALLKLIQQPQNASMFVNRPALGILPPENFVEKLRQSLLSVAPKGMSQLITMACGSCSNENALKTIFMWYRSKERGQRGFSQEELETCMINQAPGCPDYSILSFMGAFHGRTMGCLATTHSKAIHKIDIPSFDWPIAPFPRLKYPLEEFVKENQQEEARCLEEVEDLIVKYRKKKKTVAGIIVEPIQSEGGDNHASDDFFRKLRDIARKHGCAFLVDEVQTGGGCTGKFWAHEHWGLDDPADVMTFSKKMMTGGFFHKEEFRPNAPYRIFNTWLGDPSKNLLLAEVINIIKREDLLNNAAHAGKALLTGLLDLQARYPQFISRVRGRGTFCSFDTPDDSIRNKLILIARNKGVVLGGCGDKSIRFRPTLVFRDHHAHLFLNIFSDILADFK

Compound: COCC(=O)NC/C=C/c1ccc2ncnc(Nc3ccc(Oc4ccc(C)nc4)c(C)c3)c2c1 [CP-724714]
% of control [4]: 74%

Compound: COc1cc(Nc2nc(C)cc(-c3cnn4nc(OC)ccc34)n2)cc(C(F)(F)F)c1
% of control [5]: 77%

Compound: Cc1cc([C@@H](C)Nc2ccccc2C(=O)O)c2nc(N3CCOCC3)cc(=O)n2c1 [AZD-6482]
% of control [7]: 89%

Now from value to molecule:

% of inhibition [1]: 85.6%
Compound: CCc1ccccc1C(=O)Nc1n[nH]c2c(C)c(F)c(C3C(C#N)=C(C)N(C)C(C)=C3C#N)cc12 [BAY-3827]

% of inhibition [2]: 4.9% | % of inhibition [3]: 41.7%
Compound: CC[C@@H]1[C@H](F)C(=O)N[C@@H]1COc1nccc2cc(C(N)=O)c(OC)cc12 [ZIMLOVISERTIB]

% of control [6]: 84%
Compound: CC(=O)Nc1cccc(-n2c(=O)n(C3CC3)c(=O)c3c(Nc4ccc(I)cc4F)n(C)c(=O)c(C)c32)c1
